We go through two compounds from US11707530B2, “Ligand capable of multivalently binding to glutamine transporter, and composition comprising same” (TOKYO INSTITUTE OF TECHNOLOGY, priority 2016, dated 2023).

For assay [1], the target named is T1, ASCT2 (Homo sapiens, UniProt Q15758).
T1 sequence (Q15758 1-541): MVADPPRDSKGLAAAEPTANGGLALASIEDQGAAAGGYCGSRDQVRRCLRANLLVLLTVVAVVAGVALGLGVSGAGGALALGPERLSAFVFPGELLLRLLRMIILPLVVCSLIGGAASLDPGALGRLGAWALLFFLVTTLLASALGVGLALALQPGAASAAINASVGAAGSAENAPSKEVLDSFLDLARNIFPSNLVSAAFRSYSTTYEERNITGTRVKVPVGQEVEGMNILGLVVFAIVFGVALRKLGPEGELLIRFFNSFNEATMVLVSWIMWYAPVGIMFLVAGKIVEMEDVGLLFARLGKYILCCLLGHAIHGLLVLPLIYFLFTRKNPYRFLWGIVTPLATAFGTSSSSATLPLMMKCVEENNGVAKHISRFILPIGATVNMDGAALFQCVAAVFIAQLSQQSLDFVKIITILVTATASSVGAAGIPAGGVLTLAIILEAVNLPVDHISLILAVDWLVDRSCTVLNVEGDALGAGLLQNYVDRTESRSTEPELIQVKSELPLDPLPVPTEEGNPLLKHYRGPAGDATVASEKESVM
The experiment in a line: Antibody labeling of Bx-PC3 cells after incubation in Bzl-Ser solution. In kind it is cell-based. Set-up: endogenous in cells; host or cells: Bx-PC3 (BxPC-3) pancreatic cancer cells. Particulars: 50 mM Bzl-Ser.

Assay [2] addresses T1, ASCT2. Particulars: background statement; read-out: Km (Michaelis constant, affinity for ASCT2); cited from earlier work.

`N[C@@H](COCc1ccccc1)C(=O)O` [Bzl-Ser, O-benzyl-L-serine]: the “antibody labeling, cells incubated in Bzl-Ser solution vs PBS+10% FBS” value at ASCT2 [1] is “no difference observed”.

As a reminder, the Km is the concentration of substrate that gives half-maximal velocity. Consider `NC(=O)CC[C@H](N)C(=O)O` [glutamine, L-glutamine], for which, on ASCT2 [2], the Michaelis-Menten constant (Km) is 20 µM.
